Assays:
NF-κB gene = assay: Blocking of NF-κB gene expression
skin = assay: Effects on skin at the tissue level (collagen, elastin, hair follicles, senile plaques)
Antioxidant effect = assay: Antioxidant effect
Source text: At the same time, the molecular weight of gx-50 is so small that gx-50 is more easily absorbed via the skin.

For `COc1ccc(CCNC(=O)/C=C/c2ccccc2)cc1OC` [gx-50], the “expression of the NF-κB gene” value (NF-κB gene) was “effectively blocks the expression of the NF-κB gene”, the “loss of collagen and elastin in skin” value (skin) was “helps prevent the loss of collagen and elastin in skin” and the antioxidant effect (Antioxidant effect) was “possessing an antioxidant effect”.
